The GI50 is the concentration at which growth is held to half of that of the control. Usually DC50 stands for the midpoint of the concentration-degradation curve. The low end stands for degradation at low concentration, the high end for degradation only at high concentration.

Common to all, as to format: cell-based
In one test the test system is TMD8 cells. Description: Resazurin cell viability (proliferation) assay in TMD8 DLBCL cells. The conditions noted are these: TMD8 cells (BTK dependent), 72 h, 50% growth inhibition vs vehicle, read-out: TMD8 Prol GI50. The procedure, abridged:
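TMD8 cells were seeded at 1×10^4 per well and treated 3 h later with compound, in an 8-point 1:4 dilution series starting at 1 μM, or DMSO, for 72 h at 37° C. Resazurin was added at 13 μg/ml final for the last 2 h, and fluorescence was read at ex 530/em 600 nm. GI50 versus vehicle was derived by curve fitting from triplicates.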
Background: Resazurin is reduced to fluorescent resorufin, in cell work by metabolically active cells.

For a further test, the system named is OCI-LY3 cells. Description: Resazurin cell viability (proliferation) assay in OCI-LY3 DLBCL cells. The following applies: OCI-LY3 cells (BTK independent), 72 h, 50% growth inhibition vs vehicle, read-out: OCI-LY3 Prol GI50. In short, it runs like this: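 Cells were seeded at 1×10^4 per well and dosed 3 h later: 8-point 1:4 dilutions from 10 μM (OCI-LY3), in triplicate, 72 h at 37 °C. Resazurin (13 μg/ml final) was added for the last 2 h and fluorescence read at 530/600 nm. GI50 is relative to DMSO vehicle, typically from ≥2 independent experiments.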

A further test addresses T1, BTK-GFP (Homo sapiens, UniProt Q06187+Q96SW2).
T1 construct: expressed in transfected cells; host or cells: HEK293A (Invitrogen R70507), lentiviral transduction with pLenti6-BTK-GFP-Ires-RFP, blasticidin selection
In words: BTK-GFP protein abundance flow cytometry assay in HEK293A cells. The conditions noted are these: HEK293A BTK-GFP-iresRFP cells, 24 h; for DC50: GFP signal by flow cytometry, concentration at which 50% maximal degradation was observed; for BTK deg Amax: % protein remaining at the concentration at which maximum degradation is seen. In short, it runs like this: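 HEK293A cells stably expressing bicistronic BTK-GFP-IRES-RFP (C-terminal GFP tag) via lentiviral vector. Degradation read by flow cytometry as loss of GFP signal after degrader treatment. DC50 is concentration giving 50% maximal degradation; Amax is % protein remaining at maximal degradation.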
Background: In flow cytometry, cells or beads pass a laser one at a time.

Molecules are shown by their SMILES. Where two headings read alike, the source gives them in different places.

T1 sequence (Q06187 whole entry): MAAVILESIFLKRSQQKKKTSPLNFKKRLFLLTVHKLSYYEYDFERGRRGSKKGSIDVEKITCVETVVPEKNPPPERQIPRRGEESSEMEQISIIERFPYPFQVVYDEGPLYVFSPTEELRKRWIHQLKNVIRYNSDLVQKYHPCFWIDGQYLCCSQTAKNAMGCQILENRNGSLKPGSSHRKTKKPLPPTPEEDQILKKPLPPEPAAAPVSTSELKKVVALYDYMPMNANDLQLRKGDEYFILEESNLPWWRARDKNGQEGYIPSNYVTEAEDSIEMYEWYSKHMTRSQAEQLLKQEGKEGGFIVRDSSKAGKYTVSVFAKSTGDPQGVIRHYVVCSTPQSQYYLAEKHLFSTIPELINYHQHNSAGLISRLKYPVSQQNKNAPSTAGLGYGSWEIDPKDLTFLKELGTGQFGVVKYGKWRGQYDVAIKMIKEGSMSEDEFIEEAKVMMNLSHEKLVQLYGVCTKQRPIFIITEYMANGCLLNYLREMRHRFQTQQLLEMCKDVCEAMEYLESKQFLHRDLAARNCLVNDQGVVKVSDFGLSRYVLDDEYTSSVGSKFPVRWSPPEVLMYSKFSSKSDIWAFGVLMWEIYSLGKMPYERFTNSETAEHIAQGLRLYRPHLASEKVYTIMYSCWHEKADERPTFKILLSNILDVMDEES
T1 sequence (Q96SW2 whole entry): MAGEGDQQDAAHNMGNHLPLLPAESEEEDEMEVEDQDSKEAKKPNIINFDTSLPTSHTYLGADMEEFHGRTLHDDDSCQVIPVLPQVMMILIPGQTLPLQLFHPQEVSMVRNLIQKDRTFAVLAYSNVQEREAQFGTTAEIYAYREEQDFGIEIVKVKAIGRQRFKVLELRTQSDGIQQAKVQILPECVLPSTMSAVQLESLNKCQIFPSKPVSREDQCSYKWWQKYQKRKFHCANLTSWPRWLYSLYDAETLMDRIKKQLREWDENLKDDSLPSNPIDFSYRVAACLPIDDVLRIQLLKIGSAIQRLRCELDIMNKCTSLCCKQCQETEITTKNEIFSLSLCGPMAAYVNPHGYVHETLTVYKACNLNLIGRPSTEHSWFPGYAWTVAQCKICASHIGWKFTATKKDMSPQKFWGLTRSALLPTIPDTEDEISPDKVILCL
T1 sequence (Q16531 whole entry partner): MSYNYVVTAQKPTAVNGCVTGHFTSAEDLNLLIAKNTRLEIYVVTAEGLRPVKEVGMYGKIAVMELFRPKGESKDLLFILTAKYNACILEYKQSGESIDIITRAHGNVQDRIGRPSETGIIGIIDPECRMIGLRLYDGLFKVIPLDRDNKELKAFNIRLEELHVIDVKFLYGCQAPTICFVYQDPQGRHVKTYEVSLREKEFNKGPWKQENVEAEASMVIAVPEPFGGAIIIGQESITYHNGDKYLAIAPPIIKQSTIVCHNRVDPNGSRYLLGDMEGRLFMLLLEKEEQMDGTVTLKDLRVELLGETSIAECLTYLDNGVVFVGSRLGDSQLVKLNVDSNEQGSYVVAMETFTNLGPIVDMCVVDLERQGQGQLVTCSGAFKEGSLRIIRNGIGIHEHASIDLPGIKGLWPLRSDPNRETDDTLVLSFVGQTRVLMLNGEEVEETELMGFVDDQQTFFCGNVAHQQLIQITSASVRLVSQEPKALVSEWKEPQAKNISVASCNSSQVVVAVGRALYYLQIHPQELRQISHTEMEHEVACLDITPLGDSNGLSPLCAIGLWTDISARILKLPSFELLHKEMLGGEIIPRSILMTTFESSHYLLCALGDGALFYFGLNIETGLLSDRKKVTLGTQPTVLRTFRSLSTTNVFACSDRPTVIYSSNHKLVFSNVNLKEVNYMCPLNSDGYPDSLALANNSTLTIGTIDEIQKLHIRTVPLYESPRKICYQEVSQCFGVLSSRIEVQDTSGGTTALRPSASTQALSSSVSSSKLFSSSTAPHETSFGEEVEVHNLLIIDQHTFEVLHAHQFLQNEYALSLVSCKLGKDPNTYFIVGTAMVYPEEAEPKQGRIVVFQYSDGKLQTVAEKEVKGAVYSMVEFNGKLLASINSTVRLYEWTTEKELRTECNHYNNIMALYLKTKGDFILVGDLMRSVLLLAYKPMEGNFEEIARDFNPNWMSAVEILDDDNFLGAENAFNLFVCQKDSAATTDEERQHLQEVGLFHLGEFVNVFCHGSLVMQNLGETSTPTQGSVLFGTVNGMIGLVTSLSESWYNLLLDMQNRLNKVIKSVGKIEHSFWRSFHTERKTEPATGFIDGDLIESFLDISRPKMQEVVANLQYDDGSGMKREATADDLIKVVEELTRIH

For `COc1ccc(C(=O)N2CCC(O[C@H]3CC[C@@H](Oc4ccc(-c5cc6c(-c7cc(F)cc(NC(=O)c8ccc(C(C)(C)O)cc8F)c7C)ncnc6[nH]5)cc4)CC3)CC2)cc1N1CCC(=O)NC1=O` [Compound 54, N-(3-(6-(4-(((1s,4s)-4-((1-(3-(2,4-dioxotetrahydropyrimidin-1(2H)-yl)-4-methoxybenzoyl)piperidin-4-yl)oxy)cyclohexyl)oxy)phenyl)-7H-pyrrolo[2,3-d]pyrimidin-4-yl)-5-fluoro-2-methylphenyl)-2-fluoro-4-(2-hydroxypropan-2-yl)benzamide], the GI50 with TMD8 cells was found to be 3.56 nM. Further, in the test with OCI-LY3 cells, the GI50 is > 10000 nM. At BTK-GFP, it took 1.5 nM to reach half-maximal degradation (DC50) and the “BTK deg Amax” value is recorded as 4.4%.
On to `COc1ccc(C(=O)N2CCN(CCN3CCN(Cc4ccc(-c5cc6c(-c7cc(F)cc(NC(=O)c8ccc(C(C)(C)O)cc8F)c7C)ncnc6[nH]5)cc4)CC3)CC2)cc1N1CCC(=O)NC1=O` [Compound 16, N-(3-(6-(4-((4-(2-(4-(3-(2,4-Dioxotetrahydropyrimidin-1(2H)-yl)-4-methoxybenzoyl)piperazin-1-yl)ethyl)piperazin-1-yl)methyl)phenyl)-7H-pyrrolo[2,3-d]pyrimidin-4-yl)-5-fluoro-2-methylphenyl)-2-fluoro-4-(2-hydroxypropan-2-yl)benzamide], for which the values for the GI50 with TMD8 cells (Homo sapiens) and with OCI-LY3 cells (Homo sapiens) were 0.67 nM and > 10000 nM, respectively. The compound further showed a DC50 on BTK-GFP of 4.2 nM. Moreover, the “BTK deg Amax” value on BTK-GFP stood at 4.1%.
On to `COc1ccc(C(=O)N2CCC3(CCN(Cc4ccc(-c5cc6c(-c7cc(F)cc(NC(=O)c8ccc(C(C)(C)O)cc8F)c7C)ncnc6[nH]5)cc4)C[C@H]3CO)CC2)cc1N1CCC(=O)NC1=O` (single isomer, unassigned) [Compound 25], for which the GI50 in the test on TMD8 cells (Homo sapiens) was 11.4 nM; in the test on OCI-LY3 cells (Homo sapiens) it was > 10000 nM. The compound further had a DC50 on BTK-GFP of 78.4 nM. Moreover, the “BTK deg Amax” value at BTK-GFP was found to be 7.2%.
The corresponding values for `COc1ccc(C(=O)N2CCN(CCN3CCC(COc4ccc(-c5cc6c(-c7cc(F)cc(NC(=O)c8ccc(C(C)(C)O)cc8F)c7C)ncnc6[nH]5)cc4)CC3)CC2)cc1N1CCC(=O)NC1=O` [Compound 51, N-(3-(6-(4-((1-(2-(4-(3-(2,4-dioxotetrahydropyrimidin-1(2H)-yl)-4-methoxybenzoyl)piperazin-1-yl)ethyl)piperidin-4-yl)methoxy)phenyl)-7H-pyrrolo[2,3-d]pyrimidin-4-yl)-5-fluoro-2-methylphenyl)-2-fluoro-4-(2-hydroxypropan-2-yl)benzamide] are 0.58 nM, 4370 nM, 0.8 nM and 3.9%.
Take `COc1ccc(C(=O)N2CCC(O[C@H]3CC[C@@H](OCc4ccc(-c5cc6c(-c7cc(F)cc(NC(=O)c8ccc(C(C)(C)O)cc8F)c7C)ncnc6[nH]5)cc4)CC3)CC2)cc1N1CCC(=O)NC1=O` [Compound 41, N-(3-(6-(4-((((1s,4s)-4-((1-(3-(2,4-dioxotetrahydropyrimidin-1(2H)-yl)-4-methoxybenzoyl)piperidin-4-yl)oxy)cyclohexyl)oxy)methyl)phenyl)-7H-pyrrolo[2,3-d]pyrimidin-4-yl)-5-fluoro-2-methylphenyl)-2-fluoro-4-(2-hydroxypropan-2-yl)benzamide]: in the test on TMD8 cells, the GI50 was found to be 17.5 nM. Further, the GI50 in the test on OCI-LY3 cells was > 10000 nM. Further, on BTK-GFP, half-maximal degradation (DC50) was put at 12.4 nM and the “BTK deg Amax” value stood at 4.4%.
Take `COc1ccc(C(=O)N2CCC3(CCN(Cc4ccc(-c5cc6c(-c7cc(F)cc(NC(=O)c8ccc(C(C)(C)O)cc8F)c7C)ncnc6[nH]5)cc4)CC3)[C@@H](CO)C2)cc1N1CCC(=O)NC1=O` (single isomer, unassigned) [Compound 2]: the GI50 with TMD8 cells (Homo sapiens) came to 3.57 nM. For the same compound, the GI50 with OCI-LY3 cells (Homo sapiens) is > 10000 nM. In addition, on BTK-GFP, the DC50 worked out at 38.5 nM and the “BTK deg Amax” value came to 4.6%.
For `COc1ccc(C(=O)N2CCC(CCN3CCN(Cc4ccc(-c5cc6c(-c7cc(F)cc(NC(=O)c8ccc(C(C)(C)O)cc8F)c7C)ncnc6[nH]5)cc4)CC3)CC2)cc1N1CCC(=O)NC1=O` [Compound 17, N-(3-(6-(4-((4-(2-(1-(3-(2,4-Dioxotetrahydropyrimidin-1(2H)-yl)-4-methoxybenzoyl)piperidin-4-yl)ethyl)piperazin-1-yl)methyl)phenyl)-7H-pyrrolo[2,3-d]pyrimidin-4-yl)-5-fluoro-2-methylphenyl)-2-fluoro-4-(2-hydroxypropan-2-yl)benzamide], the GI50 amounted to 0.5 nM in the test with TMD8 cells (Homo sapiens) and 4140 nM with OCI-LY3 cells (Homo sapiens). The compound also displayed a half-maximal degradation concentration (DC50) at BTK-GFP of 2.3 nM. For the same compound, at BTK-GFP, the “BTK deg Amax” value stood at 11.0%.
The matching figures for `COc1ccc(C(=O)N2CCC3(CCN(Cc4ccc(-c5cc6c(-c7cc(F)cc(NC(=O)c8ccc(C(C)(C)O)cc8F)c7C)ncnc6[nH]5)cc4)CC3)C(CO)C2)cc1N1CCC(=O)NC1=O` (racemic) [Compound 1, rac-N-(3-(6-(4-((9-(3-(2,4-Dioxotetrahydropyrimidin-1(2H)-yl)-4-methoxybenzoyl)-7-(hydroxymethyl)-3,9-diazaspiro[5.5]undecan-3-yl)methyl)phenyl)-7H-pyrrolo[2,3-d]pyrimidin-4-yl)-5-fluoro-2-methylphenyl)-2-fluoro-4-(2-hydroxypropan-2-yl)benzamide]: 3.89 nM, > 10000 nM, 26.2 nM and 4.2%.
The corresponding values for `COc1ccc(C(=O)N2CCC(OCCN3CCC(Oc4ccc(-c5cc6c(-c7cc(F)cc(NC(=O)c8ccc(C(C)(C)O)cc8F)c7C)ncnc6[nH]5)cc4)CC3)CC2)cc1N1CCC(=O)NC1=O` [Compound 58, N-(3-(6-(4-((1-(2-((1-(3-(2,4-dioxotetrahydropyrimidin-1(2H)-yl)-4-methoxybenzoyl)piperidin-4-yl)oxy)ethyl)piperidin-4-yl)oxy)phenyl)-7H-pyrrolo[2,3-d]pyrimidin-4-yl)-5-fluoro-2-methylphenyl)-2-fluoro-4-(2-hydroxypropan-2-yl)benzamide] are 0.56 nM, 4920 nM, 0.9 nM and 1.8%.
The matching figures for `COc1ccc(C(=O)N2CCC(CN3CCN(Cc4ccc(-c5cc6c(-c7cc(F)cc(NC(=O)c8ccc(C(C)(C)O)cc8F)c7C)ncnc6[nH]5)cc4)CC3)CC2)cc1N1CCC(=O)NC1=O` [Compound 7, N-(3-(6-(4-((4-((1-(3-(2,4-Dioxotetrahydropyrimidin-1(2H)-yl)-4-methoxybenzoyl)piperidin-4-yl)methyl)piperazin-1-yl)methyl)phenyl)-7H-pyrrolo[2,3-d]pyrimidin-4-yl)-5-fluoro-2-methylphenyl)-2-fluoro-4-(2-hydroxypropan-2-yl)benzamide]: 0.39 nM, 6120 nM, 0.7 nM and 3.3%.
For the compound `Cc1c(NC(=O)c2ccc(C(C)(C)O)cc2F)cc(F)cc1-c1ncnc2[nH]c(-c3ccc(CN4CCC5(CC4)CN(CCNC(=O)c4ccc(Cl)c(N6CCC(=O)NC6=O)c4)CCO5)cc3)cc12` [Compound 37, N-(3-(6-(4-((4-(2-(4-chloro-3-(2,4-dioxotetrahydropyrimidin-1(2H)-yl)benzamido)ethyl)-1-oxa-4,9-diazaspiro[5.5]undecan-9-yl)methyl)phenyl)-7H-pyrrolo[2,3-d]pyrimidin-4-yl)-5-fluoro-2-methylphenyl)-2-fluoro-4-(2-hydroxypropan-2-yl)benzamide], the GI50 is 1.93 nM with TMD8 cells (Homo sapiens) and 4220 nM in the test with OCI-LY3 cells (Homo sapiens). Besides, half-maximal degradation on BTK-GFP (DC50) was put at 11.3 nM. Besides, on BTK-GFP, the “BTK deg Amax” value is 6.5%.
Turning to `COc1ccc(C(=O)NCCN2CCC3(CCN(Cc4ccc(-c5cc6c(-c7cc(F)cc(NC(=O)c8ccc(C(C)(C)O)cc8F)c7C)ncnc6[nH]5)cc4)CC3)C2)cc1N1CCC(=O)NC1=O` [Compound 53, N-(3-(6-(4-((2-(2-(3-(2,4-dioxotetrahydropyrimidin-1(2H)-yl)-4-methoxybenzamido)ethyl)-2,8-diazaspiro[4.5]decan-8-yl)methyl)phenyl)-7H-pyrrolo[2,3-d]pyrimidin-4-yl)-5-fluoro-2-methylphenyl)-2-fluoro-4-(2-hydroxypropan-2-yl)benzamide], the GI50 in the test on TMD8 cells (Homo sapiens) is 3.14 nM; with OCI-LY3 cells (Homo sapiens) it was > 10000 nM. The compound also came in with a DC50 on BTK-GFP of 150 nM. Further, the “BTK deg Amax” value at BTK-GFP stood at 17.4%.
The corresponding values for `COc1ccc(C(=O)N2CCN(CCN3CCC(OCc4ccc(-c5cc6c(-c7cc(F)cc(NC(=O)c8ccc(C(C)(C)O)cc8F)c7C)ncnc6[nH]5)cc4)CC3)CC2)cc1N1CCC(=O)NC1=O` [Compound 21, N-(3-(6-(4-(((1-(2-(4-(3-(2,4-dioxotetrahydropyrimidin-1(2H)-yl)-4-methoxybenzoyl)piperazin-1-yl)ethyl)piperidin-4-yl)oxyl)methyl)phenyl)-7H-pyrrolo[2,3-d]pyrimidin-4-yl)-5-fluoro-2-methylphenyl)-2-fluoro-4-(2-hydroxypropan-2-yl)benzamide] are 0.6 nM, 6830 nM, 1.8 nM and 3.7%.

The record behind these values is patent US12441733B2, “Substituted 2,4-dioxotetrahydropyrimidines as intermediates in the synthesis of bruton's tyrosine kinase inhibitors” (Novartis AG, priority 2018, dated 2025).
